Data set [1] is described as follows: Cytotoxicity by the MTS method on uninfected cells. To be noted: mouse, uninfected RAW 264.7 cells. Format: cell-based. The procedure: Cytotoxicity: The cytotoxicity of the Compounds was evaluated by the MTS method, by exposing uninfected cells to the same concentrations of compounds for 3 days. The %cell viability was calculated as (ODtreated/ODCC) × 100, where ODCC is the OD of uninfected untreated cells and ODtreated are uninfected cells treated with compound. The CC50 was defined as the compound concentration that reduces the number of viable cells by 50%[34].
(Formazan colour is commonly taken as a measure of viable cells.)

A further data set deals with HuNoV (GII.4) RdRp (Norovirus Hu/GII.4/Sydney/NSW0514/2012/AU, UniProt K4L8Z7). Briefly: Quantitative fluorescent RdRp activity assay (PicoGreen, poly(C) template). Format: biochemical, human norovirus Sydney 2012. Conditions: for IC50: HuNoV (GII.4) RdRp activity, six concentrations 0.1–100 µM, mean ± SD; for inhibition at 20 µM: read-out: inhibition of HuNoV RdRp activity at fixed concentration. The procedure:
The newly synthesised compounds, including the carboxylate ester derivatives 34–35 and 7 from the Core Hopping approach, were evaluated for their enzymatic inhibition of human norovirus Sydney 2012 (HuNoV (GII.4)) RdRp activity in vitro, using a quantitative fluorescent assay. Compounds were tested at six different concentrations (concentration range examined: 0.1–100 µM) and compared to the relative activity of mock treated samples containing the vehicle only (0.5% DMSO [vol/vol]). PPNDS [Pyridoxal-5′-phosphate-6-(2′-naphthylazo-6′-nitro-4′,8′-disulfonate) tetrasodium salt], a previously reported potent inhibitor of NoV RdRp activity, and 1 were used as positive controls. Dose-dependent inhibitory response curves were used to establish IC50 values for the eight test compounds, as reported in Table 1 (see also Supplementary Fig. S1).
The newly prepared compounds 48–60 were initially evaluated against norovirus Sydney 2012 RdRp activity in vitro using a quantitative fluorescent assay. Compounds were tested at a fixed concentration of 20 µM and compared to the relative activity of mock treated samples. PPNDS and 1 were used as positive controls. […] These two rings are structural features present in 1 and in one of its derivatives we have previously reported. […] From these observations, the thiophene ring appears not to influence inhibitory activity. Derivatives in which the central core of 48 has been used to link the two terminal hydrophobic rings of 1 or of its derivatives we have previously reported[25] (55, 57, 58) appear to retain the RdRp inhibitory activity found for 48 (~20% at 20 µM). A similar effect is obtained when a sulfonyl group, as in our hit 1, is used to link ring 2, regardless if it is a thiazole (59) or an unsubstituted phenyl ring (60), to the rest of the molecule. […] Overall, even if showing a reduced biochemical activity in comparison with 1, some of the new derivatives can be considered as modest HuNoV RdRp inhibitors at 20 µM.
Fluorescent RdRp activity assays were carried out as previously described[12],[29]. Briefly, RdRp activity was quantified by monitoring the formation of double-stranded RNA (dsRNA) from a single stranded homopolymeric template, poly(C) (Sigma Aldrich), using the fluorescent dye PicoGreen (Life Technologies, Carlsbad, CA, USA). RdRp assays were performed in 384-well plates, and each reaction mixture contained 400 ng enzyme, 45 μM GTP, 10 ng/μL poly(C) RNA, 2.5 mM MnCl2, 5 mM dithiothreitol, (DTT), 0.01% bovine serum albumin (BSA), and 0.005% Tween 20 in 20 mM Tris-HCl, pH 7.5, with a final reaction volume of 25 μL. The PPNDS and compound 1 were used as a positive controls. RdRps were incubated for 10 mins at 30 °C in the presence of the test compounds or the compound vehicle DMSO (0.5% vol/vol) before addition into the reaction mixture, which was then allowed to run 15 min at 30 °C then terminated with 10 mM EDTA, followed by PicoGreen staining and dsRNA quantitation. GraphPad Prism V6.05 (La Jolla, CA, USA) was used to plot the IC50 values. A secondary gel-based polymerase activity assay was used as a counter-screen as described below, to exclude the possibility of RdRp activity enhancement. Primed elongation activity was examined in a gel-based assay as previously described[12],[29] using the RNA template (PE44-NoV). Gels were imaged using BioRad (Hercules, CA, U.SA) Geldoc Universal Hood II, running BioRad Image Lab software, V4.1, build 16.

For another data set, the system named is MNV. Nature of the data set: MNV CPE reduction assay (MTS) in RAW 264.7 cells. Format: cell-based, mouse norovirus (MNV-1.CW1). To be noted: Norovirus, RAW264.7, in Mus musculus. The procedure:
The newly prepared compounds 2–7 and 34–35 were evaluated for their antiviral effect against the genogroup V mouse norovirus (MNV) using the mouse macrophage cell line RAW264.7. This assay evaluates the ability of the compounds to protect infected cells from the virus-induced cytopathic effect, thus being suitable to identify inhibition of virus replication at every step of the virus life cycle, and representing a robust cellular assay available for the rapid evaluation of potential norovirus inhibitors. Compounds identified using MNV have shown effects against HuNoV in vitro and in vivo, as in the case of nucleoside RdRp inhibitor 2′-C-methylcytidine (2CMC)[34]–[36]. Unfortunately, despite not presenting the aqueous solubility issues we had previously encountered for 1[29], no significant antiviral effect could be observed in this assay for the new compounds up to the maximum concentration tested. The new structural modifications, despite retaining inhibition of the RdRp in an isolated enzyme activity assay and showing no cytotoxic effects at the test concentrations in the MNV antiviral assay (Supplementary Table S1), are correlated with a lack of antiviral activity. As these new structures present the same limitation of most non-nucleoside HuNoV polymerase inhibitors reported so far[22], we were prompted to apply a different computer-aided strategy to further modify the scaffold of 1, with the aim to achieve an antiviral effect in cellular systems. […]
Since the main scope of this work was to find new norovirus inhibitors which show antiviral effects against both the HuNoV RdRp and in norovirus-infected cells, priority was given to the evaluation of most of the new molecules for their antiviral activity against MNV in infected RAW cells. The nucleoside 2′-C-methylcytidine was used as positive control. The test compounds were evaluated at eight different concentrations (range 0.6–100 µM) and their ability to reduce the virus-induced cytopathic effect was assessed.
Cells and virus: MNV (virus strain MNV-1.CW1) was propagated in RAW 264.7 cells grown in DMEM (Life Technologies, Gent, Belgium) supplemented with 10% or 2% FBS, 2 mM L-glutamine, 20 mM HEPES, 0.075 g/L sodium bicarbonate, 1 mM sodium pyruvate, 100 U penicillin/mL and 100 µg/mL streptomycin at 37 °C in a humidified atmosphere of 5% CO2. The human norovirus GI.1 replicon harboring gastric tumor-1 cell line (HGT-NV) (kindly provided by Dr. Ian Goodfellow, University of Cambridge) was maintained in DMEM supplemented with 10% FBS, 2mM L-glutamine, 0.075 g/L sodium bicarbonate and 1.0 mg/ml of Geneticin (G418; Life Technologies), at 37 °C in a humidified atmosphere of 5% CO2[34].
Antiviral assay with MNV: The antiviral activity of the Compounds was determined using an MTS [3-(4,5-dimethylthiazol-2-yl)-5-(3-carboxymethoxyphenyl)-2-(4-sulfophenyl)-2H-tetrazolium]-based cytopathic effect (CPE) reduction assay. […] Then, a MTS-phenazinemethosulfate (MTS/PMS) stock solution [(2 mg/mL MTS (Promega, Leiden, The Netherlands) and 46 µg/mL PMS (Sigma–Aldrich, Bornem, Belgium) in PBS at pH 6–6.5)] was diluted 1/20 in MEM (Life Technologies, Gent, Belgium) and 75 µL were added to each well. After 2 h, the optical density (OD) was read at 498 nm. The %CPE reduction was calculated as [(ODtreated)MNV − ODVC]/[ODCC − ODVC] × 100, where ODCC represents the OD of the uninfected untreated cells, whereas ODVC and (ODtreated)MNV represent the OD of infected untreated cells and virus-infected cells treated with a compound concentration, respectively. The 50% effective concentration (EC50) was defined as the compound concentration that protected 50% of the cells from virus-induced CPE[34].

Setting [2] is: Supplementary Table S1, at least two independent experiments.
[3] abbreviates: Table 2, at least three independent experiments.
[4] abbreviates: Table 2, RAW 264.7, range 0.6–100 µM, at least three independent experiments.

Structures are written as SMILES.

Usually CC50 stands for the concentration that lowers cell viability or growth by half. One may read the IC50 as the concentration that gives 50% inhibition. Broadly, the EC50 is the concentration at which the effect is half-maximal. Higher therefore signals a need for much substance. Take `O=C1NN(c2ccc(C(=O)O)cc2)C(=O)/C1=C/c1ccc(-c2ccc(S(=O)(=O)Nc3ccccc3)cc2)o1` [Compound 2, (E)-4-(3,5-dioxo-4-((5-(4-(N-phenylsulfamoyl)phenyl)furan-2-yl)methylene)pyrazolidin-1-yl)benzoic acid]: the CC50 at 3 days in data set [1] (setting [2]) was > 100 µM. At HuNoV (GII.4) RdRp, the IC50 stood at 17.2 ± 2.4 µM. Moreover, the EC50 in the data set with MNV (setting [2]) was > 100 µM.
As for `C[C@@]1(O)[C@H](O)[C@@H](CO)O[C@H]1n1ccc(N)nc1=O` [Compound 2CMC, 2′-C-methylcytidine, reference compound], in data set [1] (setting [3]), the CC50 at 3 days came to 16 ± 2 µM. The compound also returned an EC50 in the data set with MNV (setting [4]) of 2 ± 1 µM.
For `O=C1NN(c2cccc(C(=O)O)c2)C(=O)/C1=C/c1ccc(-c2ccc(S(=O)(=O)Nc3ccccc3)cc2)o1` [Compound 3, (E)-3-(3,5-dioxo-4-((5-(4-(N-phenylsulfamoyl)phenyl)furan-2-yl)methylene)pyrazolidin-1-yl)benzoic acid], the CC50 at 3 days in data set [1] (setting [2]) was > 100 µM. Further, the concentration for half-maximal inhibition (IC50) on HuNoV (GII.4) RdRp stood at 22.5 ± 6.5 µM. Besides, the EC50 in the data set with MNV (setting [2]) was > 100 µM.
For the compound `O=C1NN(c2ccccc2)C(=O)/C1=C/c1ccc(-c2ccc(S(=O)(=O)Nc3ncccn3)cc2)o1` [Compound 4, (E)-4-(5-((3,5-dioxo-1-phenylpyrazolidin-4-ylidene)methyl)furan-2-yl)-N-(pyrimidin-2-yl)benzenesulfonamide], in data set [1] (setting [2]), the CC50 at 3 days turned out to be 60 ± 21 µM. In addition, the inhibition at 100 µM at HuNoV (GII.4) RdRp (100 µM, read-out: inhibition of RdRp activity at the maximum concentration tested) amounted to 15%. In addition, the EC50 in the data set with MNV (setting [2]) was > 50 µM.
As for `O=C1NN(c2ccccc2)C(=O)/C1=C/c1ccc(-c2ccc(S(=O)(=O)Nc3ncco3)cc2)o1` [Compound 5, (E)-4-(5-((3,5-dioxo-1-phenylpyrazolidin-4-ylidene)methyl)furan-2-yl)-N-(oxazol-2-yl)benzenesulfonamide], the CC50 at 3 days in data set [1] (setting [2]) was > 100 µM. Also, the half-inhibitory concentration (IC50) on HuNoV (GII.4) RdRp was found to be 12.8 ± 2.6 µM. In addition, the EC50 in the data set on MNV (setting [2]) was > 100 µM.
For `O=C1NN(c2ccccc2)C(=O)/C1=C/c1ccc(-c2ccc(S(=O)(=O)Nc3nc4ccccc4[nH]3)cc2)o1` [Compound 6, (E)-N-(1H-benzo[d]imidazol-2-yl)-4-(5-((3,5-dioxo-1-phenylpyrazolidin-4-ylidene)methyl)furan-2-yl)benzenesulfonamide], the CC50 at 3 days in data set [1] (setting [2]) was > 100 µM. The IC50 at HuNoV (GII.4) RdRp stood at 26.7 ± 2 µM. A half-maximal effect in the data set on MNV (setting [2]) (EC50) was put at 89 ± 2 µM.
The corresponding values for `CCOC(=O)c1cccc(N2NC(=O)/C(=C\c3ccc(-c4ccc(S(=O)(=O)Nc5ccccc5)cc4)o3)C2=O)c1` [Compound 35, Ethyl(E)-3-(3,5-dioxo-4-((5-(4-(N-phenylsulfamoyl)phenyl)furan-2-yl)methylene)pyrazolidin-1-yl)benzoate] are > 100 µM, 18.9 ± 3.1 µM and > 100 µM.
Consider `O=C(NC(=S)Nc1ccc(N2CCN(C(=O)c3cccs3)CC2)cc1)c1cc2ccccc2s1` [Compound 49, N-((4-(4-(Thiophene-2-carbonyl)piperazin-1-yl)phenyl)carbamothioyl)benzo[b]thiophene-2-carboxamide], for which the CC50 at 3 days in data set [1] (setting [3]) was > 100 µM. Besides, the inhibition at 20 µM at HuNoV (GII.4) RdRp was 15 to 20%. In addition, the EC50 in the data set on MNV (setting [4]) was > 100 µM.
Take `O=C(NC(=S)Nc1ccc(N2CCN(C(=O)c3ccccc3)CC2)cc1)c1sc2ccccc2c1Cl` [Compound 54, N-((4-(4-Benzoylpiperazin-1-yl)phenyl)carbamothioyl)-3-chlorobenzo[b]thiophene-2-carboxamide]: it took 4.5 ± 0.7 µM to reach half-maximal cytotoxicity in data set [1] (setting [3]) (CC50 at 3 days). In addition, on HuNoV (GII.4) RdRp, the inhibition at 20 µM was ≤ 60%. For the same compound, the EC50 in the data set with MNV (setting [4]) is > 100 µM.
As for `O=C(NC(=S)Nc1ccc(N2CCN(C(=O)c3ccccc3)CC2)cc1)c1ccccc1` [Compound 55, N-((4-(4-Benzoylpiperazin-1-yl)phenyl)carbamothioyl)benzamide], half-maximal cytotoxicity in data set [1] (setting [3]) (CC50 at 3 days) was put at 61.9 µM. In addition, the inhibition at 20 µM on HuNoV (GII.4) RdRp is ~20%. In the data set with MNV (setting [4]), the EC50 was > 100 µM.
The corresponding values for `Cc1ccc(C(=O)NC(=S)Nc2ccc(N3CCN(C(=O)c4ccccc4)CC3)cc2)cc1` [Compound 57, N-((4-(4-Benzoylpiperazin-1-yl)phenyl)carbamothioyl)-4-methylbenzamide] are > 100 µM, ~20% and > 100 µM.

(Values after paper PMC6895199, “A new antiviral scaffold for human norovirus identified with computer-aided approaches on the viral polymerase” (Scientific Reports, 2019).)
